IC50 data for 10 compounds are collected here from patent US20070112015A1, “Substituted dihydropyridines and methods of use” (ChemoCentryx, Inc., priority 2005, published 2007).

A value given as a limit tells only on which side of the number the result lay.

As a reminder, the IC50 is the concentration that inhibits the measured activity by half. Low values mean inhibition by little substance, high ones a need for much substance.

The target in this experiment is T1, human C5a receptor (Homo sapiens, UniProt P21730).
T1 construct: expressed in transfected cells; alternatively isolated human neutrophils (endogenous receptor)
T1 sequence (P21730 1-350): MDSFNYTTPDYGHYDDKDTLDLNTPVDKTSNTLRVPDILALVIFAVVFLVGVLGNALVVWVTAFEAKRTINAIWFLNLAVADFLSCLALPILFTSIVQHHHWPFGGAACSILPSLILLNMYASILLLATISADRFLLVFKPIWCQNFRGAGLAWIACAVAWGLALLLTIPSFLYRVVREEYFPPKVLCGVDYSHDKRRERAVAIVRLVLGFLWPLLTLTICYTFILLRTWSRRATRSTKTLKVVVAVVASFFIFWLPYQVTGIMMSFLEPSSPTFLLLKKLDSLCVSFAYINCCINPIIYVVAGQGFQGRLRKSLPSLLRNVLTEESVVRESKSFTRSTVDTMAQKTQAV
In words: Inhibition of C5aR ligand binding (125I labeled C5a). The following applies: 125I labeled C5a binding to C5aR expressing cells (L1.2 C5aR cells or neutrophils). The method, then:
L1.2 cells (ATCC #HB-12624) were transfected with a mammalian expression vector constitutively expressing the human C5a receptor (Genbank accession # NM_001736). A stable cell line was produced by selection with G418 for the co-expressed resistance marker. These cells were cultured as a suspension in RPMI-1640 medium supplemented with 2 mM L-glutamine, 1.5 g/L sodium bicarbonate, 4.5 g/L glucose, 10 mM HEPES, 1 mM sodium pyruvate, and 10% FBS. Cells were grown under 5% CO2/95% air, 100% humidity at 37° C. and subcultured twice weekly at 1:6 (cells were cultured at a density range of 1×10^5 to 2×10^6 cells/mL) and harvested at 1×10^6 cells/mL. L1.2 C5aR cells express C5a receptor and can be used in C5aR ligand binding and functional assays.
Neutrophils were isolated from fresh human blood using density separation and centrifigation. Briefly, whole blood is incubated with equal parts 3% dextran and allowed to separate for 45 minutes. After separation, the top layer is then layered on top of 15 mls of Ficoll (15 mls of Ficoll for every 30 mls of blood suspension) and centrifuged for 30 minutes at 400×g with no brake. The pellet at the bottom of the tube is then isolated and resuspended into PharmLyse RBC Lysis Buffer (BD Biosciences, San Jose, Calif.) after which the sample is again centrifuged for 10 minutes at 400×g with brake. The remaining cell pellet is resuspended as appropriate and consists of isolated neutrophils.
C5aR expressing cells were centrifuged and resuspended in assay buffer (20 mM HEPES pH 7.1, 140 mM NaCl, 1 mM CaCl2, 5 mM MgCl2, and with 0.2% bovine serum albumin) to a concentration of 5×10^6 cells/mL for L1.2 C5aR cells and […]. Binding assays were set up as follows. 0.1 mL of cells (5×10^5 L1.2 C5aR cells/well or 1×10^5 neutrophils) was added to the assay plates containing the compounds, giving a final concentration of ˜2-10 μM each compound for screening (or part of a dose response for compound IC50 determinations). Then 0.1 mL of ^125I labeled C5a (obtained from Perkin Elmer Life Sciences, Boston, Mass.) diluted in assay buffer to a final concentration of ˜50 pM, yielding ˜30,000 cpm per well, was added (using ^125I labeled C5a with L1.2 C5aR cells and with neutrophils), the plates sealed and incubated for approximately 3 hours at 4° C. on a shaker platform. Reactions were aspirated onto GF/B glass filters pre-soaked in 0.3% polyethyleneimine (PEI) solution, on a vacuum cell harvester (Packard Instruments; Meriden, Conn.). Scintillation fluid (40 μl; Microscint 20, Packard Instruments) was added to each well, the plates were sealed and radioactivity measured in a Topcount scintillation counter (Packard Instruments). Control wells containing either diluent only (for total counts) or excess C5a (1 µg/mL, for non-specific binding) were used to calculate the percent of total inhibition for compound. The computer program Prism from GraphPad, Inc. (San Diego, Calif.) was used to calculate IC50 values. IC50 values are those concentrations required to reduce the binding of radiolabeled C5a to the receptor by 50%. (For further descriptions of ligand binding and other functional assays, see Dairaghi, et al., J. Biol. Chem. 274:21569-21574 (1999), Penfold, et al., Proc. Natl. Acad. Sci. USA. 96:9839-9844 (1999), and Dairaghi, et al, J. Biol. Chem. 272:28206-28209 (1997)).
To evaluate small organic molecules that prevent the C5a receptor from binding ligand, an assay was employed that detected radioactive ligand (i.e, C5a) binding to cells expressing C5aR on the cell surface (for example, L1.2 C5AR cells or isolated human neutrophils). For compounds that inhibited binding, whether competitive or not, fewer radioactive counts are observed when compared to uninhibited controls.
Equal numbers of cells were added to each well in the plate. The cells were then incubated with radiolabeled C5a. Unbound ligand was removed by washing the cells, and bound ligand was determined by quantifying radioactive counts. […]
Consider `Cc1cc(C)c(C2CC(=O)C3=C(C2)NC(C2CC2)=C(C(=O)OC2CCCC2)C3c2cccc(O)c2)c(C)c1` (stereo not shown) [Compound 1.001], for which the IC50 was under 1000 nM.
Under `CC(C)C1=C(C(=O)OC2CCCC2)C(c2cccc(O)c2)C2=C(CC(c3c(Cl)cncc3Cl)CC2=O)N1` (stereo not shown) [Compound 1.010] stands 1000 to 10000 nM; under `CCOC(=O)C1=C(CCC2CCCC2)NC2=C(C(=O)CC(c3c(C)cc(C)cc3C)C2)C1c1cccc2[nH]ccc12` (stereo not shown) [Compound 1.008], under 1000 nM.
Under `CC1=C(C(=O)OC2CCCC2)C(c2cccc(O)c2)C2=C(CC(C3CCCCC3)CC2=O)N1` (stereo not shown) [Compound 1.004] stands under 1000 nM; under `CC1=C(C(=O)OC2CCCC2)C(c2cccc(O)c2)C2=C(CN(c3ccccc3)CC2=O)N1` (stereo not shown) [Compound 1.007], 1000 to 10000 nM; under `O=C1CC(c2ccc3c(c2)OCO3)CC2=C1C(c1cccc(O)c1)C(C(=O)OC1CCCC1)=C(CC1CCCC1)N2` (stereo not shown) [Compound 1.009], under 1000 nM.
Under `CC1=C(C(=O)OC2CCCC2)C(c2cccc(O)c2)C2=C(CC(c3ccc(C)c(F)c3)CC2=O)N1` (stereo not shown) [Compound 1.002] stands under 1000 nM.
For the compound `CC1=C(C(=O)OC2CCCC2)C(c2cccc(O)c2)C2=C(CC(c3ccc(-c4ccccc4)cc3)CC2=O)N1` (stereo not shown) [Compound 1.005], the IC50 lay within 1000 to 10000 nM.
Under `CC1=C(C(=O)OC2CCCC2)C(c2cccc(O)c2)C2=C(CC(c3ccc(C(F)(F)F)cc3)CC2=O)N1` (stereo not shown) [Compound 1.003] stands under 1000 nM; under `CC1=C(C(=O)OC2CCCC2)C(c2cccc(O)c2)C2=C(CC(c3ccc4ccccc4c3)CC2=O)N1` (stereo not shown) [Compound 1.006], under 1000 nM.
